Reference: patent US20250152580A1, “METHODS FOR TREATING IMMUNE DISEASES” (Ascentage Pharma (Suzhou) co., Ltd., priority 2022, published 2025)
“Also recorded” adds a separate entry of the source.

Assays:
[1] = system: DSS induced IBD (colitis) model; experiment: DSS induced inflammatory bowel disease (IBD) model in C57BL/6 mice; assay type: in vivo; settings: for pathological score (colon): day 8, vehicle 10.10±0.17
Source text: Female C57BL/6 mice (8 weeks old) were obtained from Beijing Vital River Laboratory Animal Co. Ltd. Animals were housed and handled in a temperature-controlled environment with a 12-h light/12-h dark cycle. A total of 50 mice were assigned to 5 groups by randomization based on body weight.
On Day 0, colitis was induced by administration of 3% DSS (dextran sodium sulfate, molecular weight 36,000-50,000) in drinking water ad libitum for 8 days. 8-week-old mice were divided into 5 groups: Group 2, DSS treatment group (vehicle, po, qd, from day 0 to day 7); Group 3, DSS with 30 mg/kg Cpd. 4 (po, qd, from day 0 to day 7); Group 4, DSS with 100 mg/kg Cpd. 4 (po, qd, from day 0 to day 7); and Group 5, DSS with 50 mg/kg Cyclosporine (po, qd, from day 0 to day 7). For the Group 1 (G1) Sham group, the mice were provided drinking water without DSS.
Clinical signs of IBD were assessed every day based on the scores of disease activity index (DAI) which was evaluated from three parameters using a scoring system from 0 to 4: stool consistency (0, normal stool; 1, soft but still formed stool; 2, soft and not formed stool; 3, very soft and wet stool; 4, watery diarrhea), bleeding score (0, negative hemoccult; 1, weak positive hemoccult; 2, positive hemoccult; 3, blood trace in stool visible; 4, gross rectal bleeding) and body weight loss (0, no body weight loos; 1, 1-5% body weight loss; 2, 6-10% body weight loss; 3, 11-20% body weight loss; 4, >20% body weight loss).
At the end of induction with DSS, the animals were euthanized, dissected and the entire colon was quickly removed and gently cleared of feces.
The entire colon was weighed, and the total length was measured. Colon weight gain and shortening is an indirect marker of inflammation. As expected, DSS increased colon weight to 243.8±10.73 mg. Cpd. […] 4 treatment (FIG. 11).
The colon of a mouse was Swiss-rolled and fixed with neutralized PFA followed by H&E staining. After that, the pathologists from WuXi clinical pathological analysis platform, who were blinded to animal ID, reviewed the H&E staining and scored. The pathological scoring standards were as follows: crypt architecture (normal, 0; severe crypt distortion with loss of entire crypts, 3), degree of inflammatory cell infiltration (normal, 0; dense inflammatory infiltrate, 3), muscle thickening (normal, 0; marked muscle thickening present, 3), goblet cell depletion (absent, 0; present, 1) and crypt abscess (absent, 0; present, 1).
At the end of the study (day 8), all the animals were sacrificed by CO2, and the colon tissues were collected and fixed in 10% formalin for pathological analysis (H&E and LFB staining). The histopathological score was evaluated microscopically in a blinded manner.

[2] = system: OXA induced atopic dermatitis model; experiment: OXA induced atopic dermatitis (AD) model in C57BL/6 mice; assay type: in vivo; settings: Cpd. 4 10, 30 and 100 mg/kg po qd day 7-25; dexamethasone 25 μL of 0.09% (w/v) topical qd; compared with Vehicle
Source text: Atopic dermatitis (AD) is a chronic skin disease that presents with itching, erythema and squamous lesions. Haptenating agent oxazolone (OXA) sensitization and continuous challenge establish AD like skin inflammation.
Female C57BL/6 mice (6 weeks old) were obtained from Biocytogen Laboratory Animal Co. Ltd. Animals were housed and handled in a temperature-controlled environment with a 12-h light/12-h dark cycle. A total of 48 mice were assigned to 6 groups by randomization based on body weight.
To induce AD-like lesion, all right ears of mice except the G1 sham control group were applied with oxazolone (OXA). Briefly, skin inflammation was induced by topical administration with 25 μL of 0.8% OXA dissolved in acetone on day 0, and repeated 25 μl of 0.4% OXA three times a week from day 7 to 25. G1 sham control group was treated same volume of vehicles. Therapeutic groups as 10 mg/kg, 30 mg/kg and 100 mg/kg Cpd. 4 (po, qd, day 7 to day 25) or 25 μL of 0.09% (w/v) dexamethasone (topical, qd, day 7 to day 25) were applied to the mice. The protocols and procedures involving the care and use of animals were approved by the Institutional Animal Care and Use Committee (IACUC) at Biocytogen (Beijing, China).
Ear thickness of mice was measured before application of Oxa and every other day from day 7 to day 26. […]

[3] = Cpd. 4 30 and 100 mg/kg po qd, compared with Vehicle

SMILES: O=C(NS(=O)(=O)c1ccc(NC[C@H]2COCCO2)c([N+](=O)[O-])c1)c1ccc(N2CCN(CC3=C(c4ccc(Cl)cc4)CC4(CCC4)CC3)CC2)cc1Oc1cnc2[nH]ccc2c1 [Cpd. 4, (S)-N-((4-(((1,4-dioxan-2-yl)methyl)amino)-3-nitrophenyl)sulfonyl)-2-((1H-pyrrolo[2,3-b]pyridin-5-yl)oxy)-4-(4-((6-(4-chlorophenyl)spiro[3.5]non-6-en-7-yl)methyl)piperazin-1-yl)benzamide]
- colon length ([1]; 30 mg/kg po qd day 0 to day 7, vehicle 4.81±0.08 cm): 5.25±0.11 cm
- colon weight ([1]; 30 mg/kg po qd day 0 to day 7, vehicle 243.8±10.73 mg): 188.4 ± 10.48 mg
- pathological score (colon) ([1]; 30 mg/kg po qd): 6.70±0.25
- pathological score (colon) ([1]; 100 mg/kg po qd): 3.70±0.25
- disease activity index (DAI), clinical score of IBD ([1]; Cpd. 4 30 and 100 mg/kg po qd day 0 to day 7, cyclosporine 50 mg/kg po qd, compared with Vehicle): significantly reducing the clinical score; also recorded: significantly reduced
- colon length (in words) [1, 3]: significantly increased
- colon weight (in words) [1, 3]: significantly decreased
- pathological score (in words) ([1]; Cpd. 4, compared with Vehicle): significantly decreased
- ear thickness [2]: significantly reducing the ear thickness; also recorded: significantly reduced
